We go through 2 compounds from patent publication USRE42890E1, “Furazanobenzimidazoles” (Basilea Pharmaceutica AG, priority 2003, dated 2011).

SMILES strings stand for the structures.

One experiment has as its system Jurkat. The experiment is described as follows: MTS proliferation assay, Jurkat. Format: cell-based, human. The note with it: 72 h incubation, read-out: MTS proliferation assay IC 50 Jurkat. The method in brief: (§1)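 Absorbance at 492 nm after 3 h with MTS reagent gave proliferation. This followed 72 h compound exposure (final 0.3, 1, 3, 10 μM) at 37 °C and 7.5% CO2. Cells had been plated 24 h earlier in complete RPMI-1640 with 5% or 10% FCS.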
Take `Nc1nonc1-c1nc2ccccc2n1COc1ccc(CO)cc1` [Example 97]: the IC50 was in the range of 100 to 1000 nM.

Consider `Cl.Nc1ccc(C(=O)Cn2c(-c3nonc3N)nc3ccccc32)cc1` [Example 51], for which the IC50 is 10 to 100 nM.

A further experiment has as its system Jily. Briefly: MTS proliferation assay, Jily. The class given is cell-based. The note with it: 72 h incubation, read-out: MTS proliferation assay IC 50 Jily. Put shortly: (§2)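 Antiproliferative read-out by MTS (3 h, A492) after 72 h compound exposure at final 0.3–10 μM (four concentrations). Cells were plated 24 h earlier in RPMI-1640 containing 5% or 10% FCS, cultured at 37 °C with 7.5% CO2.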
For orientation: Tetrazolium dyes change colour on reduction, which living cells bring about.
For the compound `Nc1nonc1-c1nc2ccccc2n1COc1ccc(CO)cc1` [Example 97], the IC50 was in the range of 100 to 1000 nM.

As for `Cl.Nc1ccc(C(=O)Cn2c(-c3nonc3N)nc3ccccc32)cc1` [Example 51], the IC50 lay within 10 to 100 nM.

The subject of another experiment is HT1080. The experiment is described as follows: MTS proliferation assay, HT1080. The class given is cell-based, human. The note with it: HT1080, 72 h incubation; read-out: MTS proliferation assay IC 50 HT1080. Put shortly: as §1
For `Nc1nonc1-c1nc2ccccc2n1COc1ccc(CO)cc1` [Example 97], the IC50 fell in the range of 100 to 1000 nM.

Take `Cl.Nc1ccc(C(=O)Cn2c(-c3nonc3N)nc3ccccc32)cc1` [Example 51]: the IC50 lay in the range of 10 to 100 nM.

The test system of a further experiment is HeLa. Briefly: MTS proliferation assay, HeLa. The class given is cell-based, human. The note with it: 72 h incubation, read-out: MTS proliferation assay IC 50 HeLa. The method in brief: as §1
In the case of `Nc1nonc1-c1nc2ccccc2n1COc1ccc(CO)cc1` [Example 97], the IC50 fell in the range of 100 to 1000 nM.

As for `Cl.Nc1ccc(C(=O)Cn2c(-c3nonc3N)nc3ccccc32)cc1` [Example 51], the IC50 was 10 to 100 nM.

A further experiment relates to MRC5. Briefly: MTS proliferation assay, MRC5. Format: cell-based. The note with it: MRC5, 72 h incubation; read-out: MTS proliferation assay IC 50 MRC5. Put shortly: as §2
For `Nc1nonc1-c1nc2ccccc2n1COc1ccc(CO)cc1` [Example 97], the IC50 is 100 to 1000 nM.

On to `Cl.Nc1ccc(C(=O)Cn2c(-c3nonc3N)nc3ccccc32)cc1` [Example 51], for which the IC50 lay in the range of 10 to 100 nM.

Another experiment relates to adherent cells or suspension cells. Briefly: Hoechst 33342 nuclear staining (fraction of apoptotic nuclei). Format: cell-based. Also on record: key: 0 relating to no activity; 1 relating to weak activity comprising less than 70% of the cells; score 2 relating to strong activity comprising more than 70% of the cells. The note with it: H460, conc 0.01 μm.
In the case of `Nc1nonc1-c1nc2ccccc2n1COc1ccc(CO)cc1` [Example 97], the “Hoechst 33342 nuclear staining score” value was determined as 0.

Regarding `Cl.Nc1ccc(C(=O)Cn2c(-c3nonc3N)nc3ccccc32)cc1` [Example 51], the “Hoechst 33342 nuclear staining score” value is 0.

Still in this experiment, the particulars now being: H460, conc 0.1 μm.
Take `Nc1nonc1-c1nc2ccccc2n1COc1ccc(CO)cc1` [Example 97]: the “Hoechst 33342 nuclear staining score” value is reported as 0.

As for `Cl.Nc1ccc(C(=O)Cn2c(-c3nonc3N)nc3ccccc32)cc1` [Example 51], the “Hoechst 33342 nuclear staining score” value was 2 (score 2 relating to strong activity comprising more than 70% of the cells).

Still in this experiment, the particulars now being: H460, conc 1 μm.
Turning to `Nc1nonc1-c1nc2ccccc2n1COc1ccc(CO)cc1` [Example 97], the “Hoechst 33342 nuclear staining score” value is listed as 2 (score 2 relating to strong activity comprising more than 70% of the cells).

For the compound `Cl.Nc1ccc(C(=O)Cn2c(-c3nonc3N)nc3ccccc32)cc1` [Example 51], the “Hoechst 33342 nuclear staining score” value is recorded as 2 (score 2 relating to strong activity comprising more than 70% of the cells).

The experiment is the same for the next values; noted with them: HeLa, conc 0.01 μm.
`Nc1nonc1-c1nc2ccccc2n1COc1ccc(CO)cc1` [Example 97]: the “Hoechst 33342 nuclear staining score” value turned out to be 0.

For `Cl.Nc1ccc(C(=O)Cn2c(-c3nonc3N)nc3ccccc32)cc1` [Example 51], the “Hoechst 33342 nuclear staining score” value turned out to be 0.

The same experiment, now with this note: HeLa, conc 0.1 μm.
Consider `Nc1nonc1-c1nc2ccccc2n1COc1ccc(CO)cc1` [Example 97], for which the “Hoechst 33342 nuclear staining score” value is 0.

On to `Cl.Nc1ccc(C(=O)Cn2c(-c3nonc3N)nc3ccccc32)cc1` [Example 51], for which the “Hoechst 33342 nuclear staining score” value is 2 (score 2 relating to strong activity comprising more than 70% of the cells).

Still in this experiment, the particulars now being: HeLa, conc 1 μm.
Consider `Nc1nonc1-c1nc2ccccc2n1COc1ccc(CO)cc1` [Example 97], for which the “Hoechst 33342 nuclear staining score” value is given as 2 (score 2 relating to strong activity comprising more than 70% of the cells).

As for `Cl.Nc1ccc(C(=O)Cn2c(-c3nonc3N)nc3ccccc32)cc1` [Example 51], the “Hoechst 33342 nuclear staining score” value is given as 2 (score 2 relating to strong activity comprising more than 70% of the cells).

Still in this experiment, the particulars now being: Jily, conc 0.01 μm.
As to `Nc1nonc1-c1nc2ccccc2n1COc1ccc(CO)cc1` [Example 97], the “Hoechst 33342 nuclear staining score” value came out at 0.

In the case of `Cl.Nc1ccc(C(=O)Cn2c(-c3nonc3N)nc3ccccc32)cc1` [Example 51], the “Hoechst 33342 nuclear staining score” value is 0.

Still in this experiment, the particulars now being: Jily, conc 0.1 μm.
`Nc1nonc1-c1nc2ccccc2n1COc1ccc(CO)cc1` [Example 97]: the “Hoechst 33342 nuclear staining score” value turned out to be 0.

Regarding `Cl.Nc1ccc(C(=O)Cn2c(-c3nonc3N)nc3ccccc32)cc1` [Example 51], the “Hoechst 33342 nuclear staining score” value is reported as 2 (score 2 relating to strong activity comprising more than 70% of the cells).

Still in this experiment, the particulars now being: Jily, conc 1 μm.
Take `Nc1nonc1-c1nc2ccccc2n1COc1ccc(CO)cc1` [Example 97]: the “Hoechst 33342 nuclear staining score” value was 2 (score 2 relating to strong activity comprising more than 70% of the cells).

For the compound `Cl.Nc1ccc(C(=O)Cn2c(-c3nonc3N)nc3ccccc32)cc1` [Example 51], the “Hoechst 33342 nuclear staining score” value is reported as 2 (score 2 relating to strong activity comprising more than 70% of the cells).

Still in this experiment, the particulars now being: Jurkat, conc 0.01 μm.
On to `Nc1nonc1-c1nc2ccccc2n1COc1ccc(CO)cc1` [Example 97], for which the “Hoechst 33342 nuclear staining score” value was 0.

With `Cl.Nc1ccc(C(=O)Cn2c(-c3nonc3N)nc3ccccc32)cc1` [Example 51], the “Hoechst 33342 nuclear staining score” value is reported as 1 (1 relating to weak activity comprising less than 70% of the cells).

The experiment is the same for the next values; noted with them: Jurkat, conc 0.1 μm.
Turning to `Nc1nonc1-c1nc2ccccc2n1COc1ccc(CO)cc1` [Example 97], the “Hoechst 33342 nuclear staining score” value was determined as 0.

For the compound `Cl.Nc1ccc(C(=O)Cn2c(-c3nonc3N)nc3ccccc32)cc1` [Example 51], the “Hoechst 33342 nuclear staining score” value was 2 (score 2 relating to strong activity comprising more than 70% of the cells).

Still in this experiment, the particulars now being: Jurkat, conc 1 μm.
As to `Nc1nonc1-c1nc2ccccc2n1COc1ccc(CO)cc1` [Example 97], the “Hoechst 33342 nuclear staining score” value is given as 2 (score 2 relating to strong activity comprising more than 70% of the cells).

Consider `Cl.Nc1ccc(C(=O)Cn2c(-c3nonc3N)nc3ccccc32)cc1` [Example 51], for which the “Hoechst 33342 nuclear staining score” value is recorded as 2 (score 2 relating to strong activity comprising more than 70% of the cells).

The same experiment, now with this note: MRC5, conc 0.01 μm.
`Nc1nonc1-c1nc2ccccc2n1COc1ccc(CO)cc1` [Example 97]: the “Hoechst 33342 nuclear staining score” value is given as 0.

Take `Cl.Nc1ccc(C(=O)Cn2c(-c3nonc3N)nc3ccccc32)cc1` [Example 51]: the “Hoechst 33342 nuclear staining score” value is listed as 0.

Still in this experiment, the particulars now being: MRC5, conc 0.1 μm.
As to `Nc1nonc1-c1nc2ccccc2n1COc1ccc(CO)cc1` [Example 97], the “Hoechst 33342 nuclear staining score” value is 0.

Consider `Cl.Nc1ccc(C(=O)Cn2c(-c3nonc3N)nc3ccccc32)cc1` [Example 51], for which the “Hoechst 33342 nuclear staining score” value is recorded as 2 (score 2 relating to strong activity comprising more than 70% of the cells).

Still in this experiment, the particulars now being: MRC5, conc 1 μm.
Take `Nc1nonc1-c1nc2ccccc2n1COc1ccc(CO)cc1` [Example 97]: the “Hoechst 33342 nuclear staining score” value was found to be 0.

Regarding `Cl.Nc1ccc(C(=O)Cn2c(-c3nonc3N)nc3ccccc32)cc1` [Example 51], the “Hoechst 33342 nuclear staining score” value was 2 (score 2 relating to strong activity comprising more than 70% of the cells).

The same experiment, now with this note: PBLs, conc 0.01 μm.
Turning to `Nc1nonc1-c1nc2ccccc2n1COc1ccc(CO)cc1` [Example 97], the “Hoechst 33342 nuclear staining score” value is recorded as 0.

Take `Cl.Nc1ccc(C(=O)Cn2c(-c3nonc3N)nc3ccccc32)cc1` [Example 51]: the “Hoechst 33342 nuclear staining score” value is 0.

The experiment is the same for the next values; noted with them: PBLs, conc 0.1 μm.
For `Nc1nonc1-c1nc2ccccc2n1COc1ccc(CO)cc1` [Example 97], the “Hoechst 33342 nuclear staining score” value worked out at 0.

On to `Cl.Nc1ccc(C(=O)Cn2c(-c3nonc3N)nc3ccccc32)cc1` [Example 51], for which the “Hoechst 33342 nuclear staining score” value stood at 0.

Staying with this experiment, now noted: PBLs, conc 1 μm.
`Nc1nonc1-c1nc2ccccc2n1COc1ccc(CO)cc1` [Example 97]: the “Hoechst 33342 nuclear staining score” value stood at 0.

Regarding `Cl.Nc1ccc(C(=O)Cn2c(-c3nonc3N)nc3ccccc32)cc1` [Example 51], the “Hoechst 33342 nuclear staining score” value was 0.
